Species on record: Rattus norvegicus
Experiment: Open TG-GATES - Regimen: Single
Format: toxicity, organism-based, Sprague-Dawley
Design: regimen Single, gender Male, age 6 weeks
Details: in vivo, ip, 0.001 mg/kg, route intraperitoneal injection, dose 1 ug/Kg, dose level Low; for APTT / Bas / Eos / Fbg / Hb / Ht / Lym / MCH / MCHC / MCV / Mono / Neu / PT / Plat / RBC / Ret / WBC: tissue Blood; for KIDNEY_L / KIDNEY_R / KIDNEY_TOTAL: tissue Kidney; for LIVER: tissue Liver; for A/G / ALP / ALT / AST / BUN / CRE / Ca / Cl / DBIL / GLC / IP / K / LDH / Na / PL / RALB / TBIL / TC / TG / TP / gamma-GTP: tissue Plasma

## H-KGDRLS-OH [TNF-ALPHA]
3 h
  TERMINAL_BW: 199 g
  APTT: 17.8 s
  Bas: 0.4%
  Eos: 0.4%
  Fbg: 267.2 mg/dL
  Hb: 12.9 g/dL
  Ht: 39.8%
  Lym: 65.8%
  MCH: 21.4 pg
  MCHC: 32.4%
  MCV: 65.8 fL
  Mono: 4.2%
  Neu: 28%
  PT: 15.4 s
  Plat: 115.7 x10_4/uL
  RBC: 605.4 x10_4/ul
  Ret: 9.7%
  WBC: 95.8 x10_2/uL
  KIDNEY_L: 0.9 g
  KIDNEY_R: 0.9 g
  KIDNEY_TOTAL: 1.8 g
  LIVER: 9.3 g
  A/G: 0.9
  ALP: 1460 IU/L
  ALT: 47.8 IU/L
  AST: 77.2 IU/L
  BUN: 10.4 mg/dL
  CRE: 0.2 mg/dL
  Ca: 10.8 mg/dL
  Cl: 105.6 meq/L
  DBIL: 0.01 mg/dL
  GLC: 177.2 mg/dL
  IP: 9.8 mg/dL
  K: 4.1 meq/L
  LDH: 69.6 IU/L
  Na: 142 meq/L
  PL: 154.4 mg/dL
  RALB: 2.4 g/dL
  TBIL: 0.056 mg/dL
  TC: 83 mg/dL
  TG: 71.6 mg/dL
  TP: 5.2 g/dL
  gamma-GTP: 1.2 IU/L
6 h
  TERMINAL_BW: 195 g
  APTT: 16.4 s
  Bas: 0%
  Eos: 0.2%
  Fbg: 310.6 mg/dL
  Hb: 12.9 g/dL
  Ht: 39.3%
  Lym: 53.8%
  MCH: 21.1 pg
  MCHC: 32.8%
  MCV: 64.3 fL
  Mono: 2%
  Neu: 43.2%
  PT: 15.3 s
  Plat: 115.3 x10_4/uL
  RBC: 612.4 x10_4/ul
  Ret: 8.4%
  WBC: 82.5 x10_2/uL
  KIDNEY_L: 0.8 g
  KIDNEY_R: 0.9 g
  KIDNEY_TOTAL: 1.7 g
  LIVER: 8.3 g
  A/G: 0.9
  ALP: 1365.6 IU/L
  ALT: 36.4 IU/L
  AST: 69 IU/L
  BUN: 7.8 mg/dL
  CRE: 0.2 mg/dL
  Ca: 10.8 mg/dL
  Cl: 105.2 meq/L
  DBIL: 0.006 mg/dL
  GLC: 171.4 mg/dL
  IP: 10 mg/dL
  K: 3.7 meq/L
  LDH: 69.2 IU/L
  Na: 143.4 meq/L
  PL: 139.8 mg/dL
  RALB: 2.5 g/dL
  TBIL: 0.06 mg/dL
  TC: 80.4 mg/dL
  TG: 31.6 mg/dL
  TP: 5.3 g/dL
  gamma-GTP: 1.2 IU/L
9 h
  TERMINAL_BW: 195.3 g
  APTT: 16.7 s
  Bas: 0%
  Eos: 0.2%
  Fbg: 364.8 mg/dL
  Hb: 13 g/dL
  Ht: 40.1%
  Lym: 68.2%
  MCH: 21.4 pg
  MCHC: 32.4%
  MCV: 66.1 fL
  Mono: 2.2%
  Neu: 28.6%
  PT: 15.3 s
  Plat: 97.2 x10_4/uL
  RBC: 607 x10_4/ul
  Ret: 8.6%
  WBC: 61.4 x10_2/uL
  KIDNEY_L: 0.9 g
  KIDNEY_R: 0.9 g
  KIDNEY_TOTAL: 1.8 g
  LIVER: 8.4 g
  A/G: 0.9
  ALP: 1554.2 IU/L
  ALT: 38.8 IU/L
  AST: 71.4 IU/L
  BUN: 8.2 mg/dL
  CRE: 0.2 mg/dL
  Ca: 10.6 mg/dL
  Cl: 105.2 meq/L
  DBIL: 0.008 mg/dL
  GLC: 169.6 mg/dL
  IP: 10.5 mg/dL
  K: 3.7 meq/L
  LDH: 47.8 IU/L
  Na: 142.4 meq/L
  PL: 154.2 mg/dL
  RALB: 2.5 g/dL
  TBIL: 0.066 mg/dL
  TC: 84 mg/dL
  TG: 39.6 mg/dL
  TP: 5.4 g/dL
  gamma-GTP: 1 IU/L
24 h
  TERMINAL_BW: 211.6 g
  APTT: 17.8 s
  Bas: 0%
  Eos: 1%
  Fbg: 353.2 mg/dL
  Hb: 13.1 g/dL
  Ht: 40.4%
  Lym: 79.4%
  MCH: 21.5 pg
  MCHC: 32.4%
  MCV: 66.4 fL
  Mono: 3%
  Neu: 15.8%
  PT: 15.4 s
  Plat: 108.1 x10_4/uL
  RBC: 608.8 x10_4/ul
  Ret: 8.2%
  WBC: 71.1 x10_2/uL
  KIDNEY_L: 0.9 g
  KIDNEY_R: 0.9 g
  KIDNEY_TOTAL: 1.8 g
  LIVER: 10.2 g
  A/G: 0.8
  ALP: 1816.8 IU/L
  ALT: 43.2 IU/L
  AST: 70.8 IU/L
  BUN: 15.4 mg/dL
  CRE: 0.2 mg/dL
  Ca: 11.3 mg/dL
  Cl: 106 meq/L
  DBIL: 0.008 mg/dL
  GLC: 185.4 mg/dL
  IP: 8.7 mg/dL
  K: 4.5 meq/L
  LDH: 86.4 IU/L
  Na: 142.2 meq/L
  PL: 158.6 mg/dL
  RALB: 2.7 g/dL
  TBIL: 0.042 mg/dL
  TC: 81.8 mg/dL
  TG: 80.2 mg/dL
  TP: 5.8 g/dL
  gamma-GTP: 1 IU/L

— ChEMBL document CHEMBL3885861, “Open TG-GATES”
